Holding throughout (assay): NCI anticancer screen, dose series, 48 h
Test [1] concerns IGROV1 ovarian.
For test [2], the system named is UO-31 renal.
Test [3] has as its system OVCAR-8 ovarian.
Test [4] has as its system SNB-19 CNS.
Test [5] relates to A549 NSCLC.
Test [6] deals with SK-MEL-28 melanoma.
Test [7] has as its system ACHN renal.
For test [8], the system named is HT29 colon.
The subject of test [9] is COLO 205 colon.
Test [10] concerns SR leukemia.
Test [11] has as its system BT-549 breast.
For test [12], the system named is HOP-92 NSCLC.
In test [13] the test system is PC-3 prostate.
Test [14] deals with T-47D breast.
The subject of test [15] is OVCAR-3 ovarian.
Test [16] has as its system HS 578T breast.
The subject of test [17] is NCI/ADR-RES ovarian.
The subject of test [18] is SK-MEL-5 melanoma.
The subject of test [19] is KM12 colon.
Test [20] concerns SF-268 CNS.

Structures are written as SMILES.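 Method: 48-hour compound exposure of cells in 96-well plates, five concentrations, linear interpolation of endpoints. TGI is the concentration that stops growth completely.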

Consider `CO/N=C(\C(=O)Nc1cncs1)c1csc(NC(c2ccccc2)(c2ccccc2)c2ccccc2)n1`, for which the TGI in [1], in test [2], in test [3], in test [4], in test [5] and in [6] was greater than 10 µM throughout. For the same compound, the TGI in [7], in test [8], in test [9], in test [10], in test [11] and in test [12] was greater than 10 µM in each case. The TGI in test [13], in test [14], in [15], in test [16], in test [17] and in test [18] was greater than 10 µM each time. In addition, the TGI in [19] and in [20] was greater than 10 µM throughout.
In the case of `O=C1NC(Nc2cccc(Cl)c2)=N/C1=C\c1ccc(Cl)c(Cl)c1`, the TGI in test [1] is 18.7 µM; in test [2], 20.6 µM; in test [3], 16 µM; in test [4] it was 21 µM; in test [5], 16 µM; in [6], 32.1 µM. The TGI was 17 µM in [7]; 19.6 µM in [8]; 13.1 µM in [9]; 7.37 µM in test [10]; 25.1 µM in [11]; 11.4 µM in [12]. The TGI in test [13] came out at 13.3 µM; in test [14] it was 14.2 µM; in [15] it was 19.7 µM; in test [16] it was 13.4 µM; in test [17], 16.2 µM; in test [18], 19.1 µM. Besides, the TGI is 14.8 µM in test [19] and 19.4 µM in test [20].
For `CCOC(=O)C(=C(SC)SC)c1nn2c(=O)cc(C)nc2s1`, the TGI in test [1] is 47.5 µM; in test [2], 34 µM; in test [3] it was 43.9 µM; in test [4] it was 86 µM; in test [5] it was greater than 100 µM; in test [6], 31.3 µM. The TGI came to 33.7 µM in test [7]; 35.8 µM in test [8]; 36.2 µM in test [9]; 61.3 µM in test [10]; 43.7 µM in test [11]; 34.4 µM in [12]. Further, the TGI in [13] was 56.6 µM; in [14], 34.1 µM; in [15], 35 µM; in test [16], greater than 100 µM; in test [17], 90.4 µM; in test [18] it was 36.9 µM. The TGI was determined as 89.7 µM in [19] and 54.5 µM in test [20].
Consider `C=CCN1C(=O)/C(=C/c2ccccc2)NC1=S`, for which the TGI in test [1], in [2], in [3], in [4], in [5] and in test [6] was greater than 100 µM throughout. For the same compound, the TGI in test [7], in test [8], in [9], in [10], in [11] and in test [12] was greater than 100 µM in each case. Besides, the TGI in test [13], in test [14], in test [15], in test [16], in test [17] and in [18] was greater than 100 µM each time. Besides, the TGI in test [19] and in [20] was greater than 100 µM in each case.
For the compound `CC[C@@H]1/C=C/C=C/C[C@H](C)[C@@H](O)[C@](C)(O)C(=O)[C@H](C)[C@@H](O)[C@H](C)C(=O)[C@H](C)[C@@H](O)[C@H](C)/C=C/C(=O)O[C@H]2[C@@H](C)[C@@H](CC1)O[C@]1(O[C@H](CC(C)O)[C@H](C)CC1=O)[C@@H]2C` (stereo not given in full), the TGI in test [1] is 16.4 µM; in test [2] it was greater than 20.4 µM; in [3] it was greater than 25 µM; in test [4], greater than 25 µM; in test [5], greater than 16.2 µM; in [6] it was greater than 19.6 µM. Further, the TGI in test [7] was found to be 9.19 µM; in test [8], 8.78 µM; in test [9], 5.07 µM; in test [10], 12.8 µM; in test [11] it was 10.9 µM; in test [12], 9.98 µM. In addition, the TGI in test [13] is 6.41 µM; in test [14] it was greater than 25 µM; in [15], 13.1 µM; in test [16] it was greater than 18.5 µM; in [17], 14.8 µM; in [18], 3.53 µM. Further, the TGI in test [19] was 13 µM; in test [20] it was 7.93 µM.
As to `O=C(CNc1ccc(Cl)cc1)Nn1c(-c2ccccc2)nc2ccccc2c1=O`, the TGI was determined as 15.7 µM in test [1]; 20.4 µM in [2]; 5.53 µM in test [3]; 24.5 µM in test [4]; 29.4 µM in [5]; 19.8 µM in [6]. For the same compound, the TGI in [7] was 22.3 µM; in [8] it was 21.1 µM; in test [9], 18.6 µM; in test [10] it was greater than 52.1 µM; in test [11], 6.29 µM; in test [12] it was 13.4 µM. The TGI in [13] was determined as 25.4 µM; in test [14] it was 32.6 µM; in test [15] it was 25.8 µM; in test [16] it was 67 µM; in test [17], 19 µM; in [18], 7.09 µM. Also, the TGI in test [19] was 24.5 µM; in test [20], 26.9 µM.
On to `O=c1[nH]nc(-c2cccc(Br)c2)[nH]1`, for which the TGI in test [1], in test [2], in test [3], in [4], in test [5] and in test [6] was greater than 100 µM in each case. Further, the TGI in test [7], in [8], in test [9], in test [10], in [11] and in test [12] was greater than 100 µM each time. The TGI in test [13] was greater than 100 µM; in [14] it was greater than 100 µM; in test [15] it was greater than 100 µM; in [16] it was 79.7 µM; in [17], greater than 100 µM; in [18], greater than 100 µM. Moreover, the TGI in test [19] and in test [20] was greater than 100 µM in each case.

For the origin of these results see PubChem BioAssay (NCI).
